Results taken from patent US20110046160A1, “Novel Class of Spiro Piperidines for the Treatment of Neurodegenerative Diseases” (Pfizer, Inc., priority 2008, published 2011).

Target: T1, soluble human BACE (Homo sapiens, UniProt P56817)
T1 construct: cells secreting human recombinant soluble BACE; made in house; concentrated conditioned medium, crude or purified
Assay: Inhibition of BACE: beta-secretase cleavage of synthetic biotinylated APP substrate, ELISA readout
Type: biochemical
Conditions: 3 μM substrate, 0.05M sodium acetate (pH 4.5), 2% DMSO, 1 hour at 37° C., ELISA absorbance at 450 nm
Method: The substrate and test compounds are added to 384 well polypropylene plates. The reaction is initiated by the addition of soluble BACE enzyme to a final volume of 12.5 μL per well. […] Concentrated conditioned media from cells secreting human recombinant soluble BACE was titrated to provide a source of BACE enzyme. The cell media can be used as either a crude BACE prep or BACE can be purified using any number of techniques, including immobilized BACE inhibitor purification columns. The assay mixture is incubated for 1 hour at 37° C., and the reaction is quenched by the addition of an equal volume of 0.1M Tris, pH 8. Half of the quenched mix is incubated on clear streptavidin coated 384 well polystyrene plates for 1 hour. […] The readout, following assay development with TMB substrate and quenching with 0.09M sulfuric acid, is absorbance at 450 nm.

T1 sequence (P56817 46-457 limits assumed): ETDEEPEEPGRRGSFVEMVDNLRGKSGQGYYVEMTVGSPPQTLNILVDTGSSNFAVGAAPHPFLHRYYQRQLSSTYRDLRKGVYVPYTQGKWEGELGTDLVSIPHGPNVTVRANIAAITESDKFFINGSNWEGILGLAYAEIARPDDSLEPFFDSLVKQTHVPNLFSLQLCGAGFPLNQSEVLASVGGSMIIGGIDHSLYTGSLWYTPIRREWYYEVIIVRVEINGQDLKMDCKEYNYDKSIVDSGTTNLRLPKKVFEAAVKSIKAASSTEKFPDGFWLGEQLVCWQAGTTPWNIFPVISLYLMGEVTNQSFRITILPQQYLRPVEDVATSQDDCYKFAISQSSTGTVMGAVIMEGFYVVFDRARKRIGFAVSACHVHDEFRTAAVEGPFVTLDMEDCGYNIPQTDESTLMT

IC50 | Compound
1.51 µM | Cc1ccncc1-c1cccc(CN2CC[C@]3(CNS(=O)(=O)N3c3cccc(F)c3)C[C@@H]2C)c1 [Example 17, (5R,7S)-1-(3-fluorophenyl)-7-methyl-8-[3-(4-methylpyridin-3-yl)benzyl]-2-thia-1,3,8-triazaspiro[4.5]decane 2,2-dioxide]
102 µM | CC(C)Oc1cccc(CN2CC[C@]3(CNS(=O)(=O)N3c3cccc(F)c3)C[C@@H]2C)n1 [Example 83, (5R,7S)-1-(3-fluorophenyl)-8-[(6-isopropoxypyridin-2-yl)methyl]-7-methyl-2-thia-1,3,8-triazaspiro[4.5]decane 2,2-dioxide]
